These are literature values, as cited in patent US20240298642A1, “Herbicidal Compositions Comprising Fluazifop And Triclopyr” (Bayer CropScience LP, priority 2023, published 2024).

For this data set the following is noted: neat solvent.

Each structure is given as a SMILES string.

Consider `CCCCCCO` [Composition 1-hexanol, 1-hexanol], for which the flash point was 65 °C.
With `CCCCCCCCO` [Composition 1-octanol, 1-octanol], the flash point was 81 °C.
